Reference: patent US20220040179A1, “USE OF CDK8/19 INHIBITORS FOR TREATMENT OF ESTABLISHED COLON CANCER HEPATIC METASTASIS” (University of South Carolina, priority 2017, published 2022)

Columns and labels:
CT26 cells [1] = experiment: splenic injection model, CT26 cells: spleen (primary tumor) and liver (metastatic tumor) weights; assay type: in vivo, mouse; conditions: 40 mg/kg daily i.p., 16 days, BALB/c mice
Method: To compare the effects of CDK8/19 inhibition on primary and metastatic tumor growth, we used a splenic injection model (Lafreniere and Rosenberg, 1986; Zhang et al., 2009), where tumor cells are injected in the spleen, from where they metastasize into the liver. In the study shown in FIG. 4, 2×10^5 CT26 cells were injected into the spleens of 8 weeks old female BALB/c mice, and mice were treated by daily i.p. injection of Senexin B dichloride (40 mg/kg) in 10 mM citrate buffer, pH6, 150 mM NaCl or with vehicle control (n=9). 1 6 days later, mice were sacrificed and the weights of tumor-containing spleens (primary tumor) and livers (metastatic tumor) were measured.
Mice were sacrificed 16 days after tumor cell inoculation into the spleen and spleens and livers were weighed.

CT26 tumors = experiment: primary CT26 tumors implanted subcutaneously in BALB/c mice; assay type: in vivo, mouse; conditions: unmodified CT26 cells, female BALB/c mice; 50 mg/kg by gavage b.i.d. in CD vehicle vs vehicle
Method: We further investigated the effects of CDK8/19 inhibition or knockdown on the growth of primary CT26 tumors implanted subcutaneously (s.c.), at I xl 0^6 cells, in 8 weeks-old female BALB/c mice (n=I0). FIG. 3A compares the dynamics of tumor growth and final tumor weights for CT26 cells transduced with insert-free pLK0.1 (vector control) or shCDK8-1. […] FIG. 3B compares s.c. tumor growth of unmodified CT26 cells in mice treated with Senexin B dimaleate, administered by gavage at 50 mg/kg doses (weight doses calculated for Senexin B dimaleate rather than free Senexin B) in 6.25% 2-Hydroxypropyl-cyclodextrin, I % Dextrose buffer (CD vehicle), b.i.d. or with the vehicle control.

[2] = Senexin B serum concentration by LC/MS/MS in mice on medicated diet; assay type: in vivo, mouse
Method: (§1) We have analyzed the survival of mice after splenic injection of 2×10^5 CT26 cells into 8 week old female BALB/c mice, followed by removal of the spleen 1 minute after injection. Mice were sacrificed when paralysis, lack of movement or paleness (due to abdominal hemorrhage) occurred. […] To establish serum drug concentrations associated with therapeutic efficacy in this model, we conducted a similar survival study where Senexin B dimaleate was administered by mixing the drug into mouse food, which provides for sustained drug delivery over time. Senexin B was mixed into food at two concentrations differing approximately 4-fold and designated low-dose and high-dose. Serum samples were collected from treated mice and Senexin B in the serum was measured by a LC/MS/MS assay.

CT26 cells [3] = experiment: survival of mice after splenic injection of CT26 cells followed by removal of the spleen; assay type: in vivo, mouse
Method: as §1

[4] = test system: human HCTl 16 colon cancer cells; experiment: splenic injection model, human HCT116 cells in athymic nude mice: liver weights; assay type: in vivo; conditions: 50 mg/kg by gavage b.i.d. in CD vehicle, 7 weeks after inoculation
Method: The splenic injection model was used to test the effect of Senexin B on hepatic metastasis of human HCTl 16 colon cancer cells, which are […] to small-molecule CDK8/19 inhibitors (Koehler et al., 2016; Pelish et al., 2015; Porter et al., 2012). 1×10^6 HCTl 16 cells were injected into the spleens of athymic nude (nu/nu) mice (JAX #002019) mice (female, 8 weeks old), and spleens were removed 1 min later. Mice were treated with Senexin B dimaleate (50 mg/kg by gavage in CD vehicle, b.i.d.) or vehicle control (n=10). 7 weeks after tumor cell inoculation, mice were sacrificed and livers with tumor metastases (FIG. 8A) were collected.

[5] = toxicity and body weight in mice receiving Senexin B diet; assay type: in vivo; conditions: Senexin B diet relative to control diet
Method: as §1

CT26 cells [6] = experiment: splenic injection model, CT26 cells: timing of drug administration, liver weights two weeks after inoculation; assay type: in vivo, mouse; conditions: 50 mg/kg gavage b.i.d.
Method: To determine if the anti-metastatic effects of CDK8/19 inhibition observed in the splenic injection model were due to the prevention of the initial establishment of hepatic metastases or growth inhibition of already-established metastases, we asked whether Senexin B can inhibit metastatic growth in the liver when the drug is administered after the metastases have been established. […] We compared the effects of Senexin B dimaleate on hepatic metastasis, when the drug was administered by gavage at 50 mg/kg doses in CD vehicle, b.i.d. two days prior to splenic inoculation, during the first week after inoculation, during the second week after inoculation, or over the entire two-week period following splenic inoculation of CT26 cells.

CT26 colon cancer cells = experiment: in vitro growth of CT26 cells; assay type: cell-based, murine; conditions: 1 uM, 5-day assay
Description: To investigate the role of CDK8/19 in colon cancer growth and metastasis, we used murine CT26 colon cancer cell line, derived from a BALB/c mouse following chemical carcinogenesis (Griswold and Corbett, 1975). Cells were propagated in RPMI1640 medium with 10% Fetal Bovine Serum.

## CN1CCN(C(=O)c2ccc3cc(CCNc4ncnc5ccc(C#N)cc45)ccc3c2)CC1.Cl.Cl [Senexin B dichloride]
CT26 cells [1]
  metastatic tumor growth in the liver (liver weight, tumor area): strongly inhibited metastatic tumor growth in the liver
  primary tumor growth in the spleen (spleen weight): no effect on the primary tumor growth in the spleen

## CN1CCN(C(=O)c2ccc3cc(CCNc4ncnc5ccc(C#N)cc45)ccc3c2)CC1.O=C(O)/C=C\C(=O)O.O=C(O)/C=C\C(=O)O [Senexin B dimaleate]
CT26 tumors
  s.c. tumor growth: not statistically significant
[2]; high-dose diet
  average serum concentration: 206 nM
[2]; low-dose diet
  average serum concentration: 58 nM
CT26 cells [3]; combination: mice inoculated with shCDK8-1 cells and treated with Senexin B, 50 mg/kg gavage b.i.d.
  survival (Kaplan-Meyer): increased the survival time even further
CT26 cells [3]; low-dose diet (drug mixed into food) compared with high-dose diet
  survival (Kaplan-Meyer), efficiency of diet: at least as efficient as the high-dose diet
CT26 cells [3]; mice inoculated with vector control cells, 50 mg/kg gavage b.i.d. in CD vehicle
  survival (Kaplan-Meyer): prolonged the survival
[4]
  hepatic tumor growth (liver weights): strong inhibition of hepatic tumor growth
[5]
  toxicity: no apparent toxicity
[5]; days 8 and 15 after surgery
  mouse body weight: no significant change in mouse body weight
CT26 cells [6]; administered two days prior to splenic inoculation
  liver metastasis (liver weight): no effect on liver metastasis
CT26 cells [6]; both weeks after inoculation
  metastatic growth in the liver (liver weight): equally efficient in suppressing metastatic growth in the liver
CT26 cells [6]; during the first week after inoculation
  liver metastasis (liver weight): decreased the liver weights but this effect did not reach statistical significance
CT26 cells [6]; only the second week after inoculation
  metastatic growth in the liver (liver weight): equally efficient in suppressing metastatic growth in the liver

## CN1CCN(C(=O)c2ccc3cc(CCNc4ncnc5ccc(C#N)cc45)ccc3c2)CC1 [Senexin B]
CT26 colon cancer cells
  in vitro growth inhibition of CT26 cells: no significant growth inhibition
